In assay [1] the test system is Green peach aphid (Myzus persicae), mixed life stages. The assay can be described thus: Green peach aphid foliar dip test, mortality. It counts as in vivo. The note with it: 120 h, infested bell pepper leaves dipped 3 seconds, determined after 5 days, read-out: mortality of green peach aphid in comparison with untreated controls. The method, then:
(§1) The active compounds were formulated in a mixture of 50 vol.-% acetone: 50 vol.-% water. A nonionic surfactant (Kinetic®) was included in the solution at a volume of 0.01% v/v.
(§2) In the following tests, the formulated solutions of the active compounds were diluted to an active ingredient concentration of 300 ppm and the diluted solutions were applied in the below mentioned tests.
Bell pepper plants at the first true-leaf stage were infested prior to treatment by placing heavily infested leaves from the main aphid colony on top of the treatment plants. The aphids were allowed to transfer overnight to accomplish an infestation of 30-40 aphids per plant and the host leaves were removed. The infested leaves of the test plants were then dipped and agitated in the test solution for 3 seconds and allowed to dry in a fume hood. Test plants were maintained under fluorescent lighting in a 24-hr photoperiod at 25° C. and 20-40% relative humidity. Aphid mortality on the treated plants, relative to mortality on untreated check plants, was determined after 5 days. Test compound A provided 85% mortality while test compounds B and C each provided 100% mortality of green peach aphid (Myzus persicae, mixed life stages) in comparison with untreated controls, when applied at 300 ppm. Test Compounds D, E, F, G and H each provided >85% mortality of green peach aphid (Myzus persicae, mixed life stages) in comparison with untreated controls, when applied at 300 ppm.

Assay [2] concerns Cotton aphid (Aphis gossypii), mixed life stages. The assay can be described thus: Cotton aphid foliar dip test, mortality. Type of assay: in vivo. The note with it: 120 h, infested cotton cotyledons dipped 3 seconds, determined after 5 days, read-out: mortality of cotton aphid in comparison with untreated controls. The method, then:
as §1, §2
Cotton plants at the cotyledon stage were infested prior to treatment by placing a heavily infested leaf from the main aphid colony on top of each cotyledon. The aphids were allowed to transfer overnight and the host leaf was removed. The infested cotyledons were then dipped and agitated in the test solution for 3 seconds and allowed to dry in a fume hood. Test plants were maintained under fluorescent lighting in a 24-hr photoperiod at 25° C. and 20-40% relative humidity. Aphid mortality on the treated plants, relative to mortality on untreated check plants, was determined after 5 days. In this test, test compounds B, C and F at 300 ppm provided 100%, and 86-99% mortality, respectively, of cotton aphid (Aphis gossypii, mixed life stages) in comparison with untreated controls. Test compound A at 300 ppm provided 75-85% mortality, respectively, of cotton aphid (Aphis gossypii, mixed life stages) in comparison with untreated controls.

These results are taken from patent publication US20080176826A1, “Pyridine Compounds For Combating Arthropod Pests and Nematodes” (priority 2005, published 2008).

SMILES strings stand for the structures.

As usually defined, the mortality is the percentage killed.

In the case of `CC(Oc1ccc(Cl)nc1)C1CCCN1OC(=O)c1ccccc1` (racemic) [Compound E, Benzoic acid 2-[1-(6-chloropyridin-3-yloxy)-ethyl]-pyrrolidin-1-yl ester], the mortality at 300 ppm in assay [1] is more than 85%.

Take `Clc1cncc(OC[C@H]2CCCN2)c1` [Compound A, R-3-Chloro-5-(pyrrolidin-2-ylmethyloxy)-pyridine]: the mortality at 300 ppm in assay [1] was 85%; in assay [2], 75 to 85%.

For `CC(C)(C)C(=O)ON1CCCC1COc1cncc(Cl)c1` (stereo not drawn) [Compound B, 2,2-Dimethyl-propionic acid 2-(5-chloropyridin-3-yloxymethyl)pyrrolidin-1-yl ester], the mortality at 300 ppm in assay [1] and in assay [2] was 100% each time.

As to `CC(Oc1ccc(Cl)nc1)C1CCCN1` (stereo not drawn) [Compound F, 2-Chloro-5-(1-pyrrolidin-2-ylethoxy)-pyridine], the mortality at 300 ppm is more than 85% in assay [1] and 86 to 99% in assay [2].

For the molecule `CC(Oc1cncc(Cl)c1)C1CCCN1` (stereo not drawn) [Compound G, 3-Chloro-5-(1-pyrrolidin-2-ylethoxy)-pyridine], the mortality at 300 ppm in assay [1] was more than 85%.

In the case of `C[C@@H](Oc1cncc(Cl)c1)C1CCN1` (stereo partly drawn) [Compound H, 2S-3-(1-Azetidin-2-yl-ethoxy)-5-chloro-pyridine], in assay [1], the mortality at 300 ppm was more than 85%.
